Calls of active or inactive are those of the source. No stated cut-off is given here; in the data, active = IC50 of 10 µM or less and inactive = more.
Assays:
[1] = biological target: Neuropeptides B/W receptor type 1 (Homo sapiens, UniProt P48145); assay: human NPBW1 receptor blockade, IC50 – cell-based, fluorescence, dose response, set 5, late-stage follow-up (AID 588566); assay type: functional
[2] = biological target: Melanin-concentrating hormone receptor 1 (Homo sapiens, UniProt Q99705); assay: Late-stage fluorescence-based counterscreen for antagonists of the G-protein coupled receptor 7 (GPR7): cell-based dose response assay to identify antagonists of the melanin-concentrating hormone receptor 1 (MCHR1) Set 5.; assay type: functional
Melanin-concentrating hormone receptor 1, sequence (Q99705 whole entry): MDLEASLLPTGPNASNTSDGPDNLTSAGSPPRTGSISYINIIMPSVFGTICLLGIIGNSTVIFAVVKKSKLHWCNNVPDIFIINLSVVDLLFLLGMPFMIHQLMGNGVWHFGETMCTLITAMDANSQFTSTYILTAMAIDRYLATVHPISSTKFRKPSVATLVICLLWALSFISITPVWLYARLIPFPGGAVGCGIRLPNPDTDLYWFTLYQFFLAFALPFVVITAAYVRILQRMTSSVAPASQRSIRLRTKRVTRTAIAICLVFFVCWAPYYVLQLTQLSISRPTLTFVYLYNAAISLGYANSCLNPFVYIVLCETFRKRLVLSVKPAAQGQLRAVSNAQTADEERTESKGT

Neuropeptides B/W receptor type 1, sequence (P48145 whole entry): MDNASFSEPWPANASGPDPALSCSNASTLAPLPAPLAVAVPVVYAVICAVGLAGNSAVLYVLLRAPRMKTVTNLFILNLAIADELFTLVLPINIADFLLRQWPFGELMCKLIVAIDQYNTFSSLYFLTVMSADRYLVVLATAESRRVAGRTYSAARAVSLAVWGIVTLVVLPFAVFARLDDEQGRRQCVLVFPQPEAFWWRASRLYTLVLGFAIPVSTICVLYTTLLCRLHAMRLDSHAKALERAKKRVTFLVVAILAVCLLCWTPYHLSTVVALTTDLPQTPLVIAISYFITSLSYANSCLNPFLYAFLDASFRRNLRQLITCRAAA

Structure (SMILES): CCOc1ccc(Oc2c(Br)nn(Cc3cccc4ccccc34)c(=O)c2Cl)cc1
- IC50 [1]: 18.3 µM (inactive)
- IC50 [2]: > 20 µM (inactive)

Reference: ChEMBL document CHEMBL1201862, “PubChem BioAssay data set” (2004)
